Measured values as given in patent publication EP4600263A1, “KERATIN YK93-9, PREPARATION METHOD THEREFOR, PHARMACEUTICAL COMPOSITION THEREOF, AND USE THEREOF” (INSTITUTE OF MATERIA MEDICA, CHINESE ACADEMY OF MEDICAL …, priority 2022, dated 2024).
Counter-ions that a name gives are not always drawn.

Columns and labels:
[1] = tested on: acetic acid-induced writhing of mice; assay: pharmacodynamic test on mouse pain model (acetic acid-induced writhing); type: in vivo, Kunming mice; settings: Tramadol Hydrochloride 50mg/kg; 1% acetic acid intraperitoneally, writhing within 15 minutes
Description: • Animals: Male Kunming mice; • Drugs: Tramadol Hydrochloride Sustained Release Tablets, Glacial acetic acid, YK93-9; • Instruments: electronic balance, timer • Experiment grouping: • Normal control group; • Positive control group: Tramadol Hydrochloride group; • Protein YK93-9, (0.5g/kg) group.
Mice in the YK93-9 (0.5g/kg) group were administered by gavage, while mice in the model group were given an equal volume of CMC-Na once a day for 7 consecutive days. 30 minutes after the last administration, 1% acetic acid was administered intraperitoneally, and the writhing times of mice within 15 minutes was recorded, and the inhibition rate of drug-induced writhing reaction was calculated. The observation criteria were concave abdominal cavity, extended hind limbs, and raised buttocks.
The inhibition rate was calculated by (Mean number of writhing reactions in the normal control group - Mean number of writhing reactions in the treatment group)/Mean number of writhing reactions in the normal control group *100%.

[2] = tested on: mouse prostatic hyperplasia model; assay: pharmacodynamic test on mouse prostatic hyperplasia model (subcutaneous propionate testosterone); type: in vivo, Kunming mice; settings: 30 days; for Average weight: male Kunming mice; for prostate index: wet weight of the prostate (mg)/body weight of the mouse (g)
Description: • Animals: Male Kunming mice, weight: 18-20 grams • Drugs: propionate testosterone injection (Ningbo Second Hormon Factory), finasteride (Merck Sharp & Dohme, MSD) • Instruments: electronic balance • Experiment grouping: Normal control group; • Model group: Androgen loading Model; • Positive control group: finasteride (1mg/kg) group; finasteride (3 mg/kg) group; • YK93-9 (0.5g/kg) group.
Preparation of experimental animals: The experimental animals were adapted to the experimental environment (temperature 22°C±2°C, relative humidity 50%±2%) for 1 day.
Subcutaneous injection of propionate testosterone to replicate mice prostatic hyperplasia model: Mice were randomly grouped 10 in each group before the model being established. Propionate testosterone (0.01mg/kg) in soybean oil was injected subcutaneously, once a day for 30 consecutive days. Mice in the normal control group were injected subcutaneously with an equal volume of sodium carboxymethyl cellulose. Immediately after the model was established, finasteride 1mg/kg, finasteride 3m g/kg, or YK93-9 0.5g/kg were orally administered. Mice were weighed on the next day. After 30 days of administration, mice were weighed, executed. The prostate was excised through a median incision in the lower abdomen, the wet weight was weighed, and the prostate index was calculated by the wet weight of the prostate (mg)/body weight of the mouse (g).
The average value, standard deviation and standard error of the prostate index in each group were calculated. The data from the groups were compared with each other by T.TEST, and P<0.05 was considered as a significant difference.

[3] = cyclophosphamide 0.1 g/kg group, before administration
[4] = cyclophosphamide 0.1 g/kg intraperitoneally, single time
[5] = cyclophosphamide 0.1 g/kg intraperitoneally, single time, vs normal control group
[6] = cyclophosphamide 100mg/kg, vs normal control group, P<0.05
[7] = cyclophosphamide 0.1 g/kg once a week

Description for B16F10 melanoma: Subcutaneous inoculation of B16F10 cell suspension to replicate a mouse melanoma model: Under sterile conditions, the tumor block was removed, ground into tumor fluid, the concentration was adjusted with physiological saline to 2.58 × 10^6 /ml, and 0.2 ml was taken to evenly inoculate subcutaneously on the armpit back of mice. On the next day, the animals were randomly grouped and administration began (recorded as Day 0). […] On the day of treatment, weight was measured, 20µL of blood was obtained by taking blood from the eye socket and the blood routine analysis was performed, the tumor block was peeled off, weighed and photographed, and the tumor suppression rate was calculated.
(§1) The tumor suppression rate [(The average weight of the tumor in the normal control group - the average weight of the tumor in the experimental group) / The average weight of the tumor in the normal control group × 100 %] and average value, standard deviation and standard errors of tumor weight were calculated. The data from the groups were compared with each other by T.TEST, and P<0.05 was considered as a significant difference.
Description for EL-4 lymphoma: Subcutaneous inoculation of EL-4 cell suspension to replicate a mouse lymphoma model: The EL-4 tumor tissue was ground into a suspension using a glass homogenizer, the tumor suspension was aspirated with a syringe, the number of live cells was calculated, the cell concentration was adjusted to 2.0*10^6/ml with physiological saline, and then the suspension was injected into the left armpit of mice with 0.2 ml/mouse. […] On the day of treatment, weight was measured, 20µl of blood was obtained from the orbital blood and the routine blood analysis was performed. The tumor blocks were stripped, weighed and photographed, and the tumor suppression rate was calculated.
as §1
Description for Lewis lung cancer: Subcutaneous inoculation of Lewis cell suspension to replicate mouse breast cancer model: The Lewis tumor tissue was ground into a suspension with a glass homogenizer, the tumor suspension was aspirated with a syringe, the number of live cells was calculated, the concentration of the cells was adjusted to 2.6*10^6/ml with physiological saline, and then the suspension was injected to the left armpit of the mouse with 0.2 ml/mouse. […] On the day of the treatment, the weight was measured, 20µl of blood was obtained from the orbital blood and the routine blood analysis was performed. The tumor blocks were stripped, weighed and photographed, and the tumor suppression rate was calculated.
The tumor suppression rate [(The average weight of the tumor in the normal control group - the average weight of the tumor in the experimental group) / The average weight of the tumor in the normal control group × 100 %] and the average value, standard deviation and standard errors of tumor weight were calculated . The data from the groups were compared with each other by T.TEST, and P<0.05 was considered as a significant difference.

Q: How did the Number of writhing [1] turn out when `COc1cccc(C2(O)CCCCC2CN(C)C)c1` (stereo not drawn) [Tramadol Hydrochloride] was run?
A: The Number of writhing was 0.0±0.00.

Q: For `CC(C)(C)NC(=O)[C@H]1CC[C@H]2[C@@H]3CC[C@H]4NC(=O)C=C[C@]4(C)[C@H]3CC[C@]12C` [finasteride], which “wet weight of the prostate” value ([2]; finasteride 1mg/kg orally) is on record?
A: Its value is 31.8 ± 4.8 mg.

Q: And the Average weight ([2]; finasteride 1mg/kg orally)?
A: The Average weight was 43.5 ± 3.5 g.

Q: What about the prostate index ([2]; finasteride 1mg/kg orally) of the same compound?
A: The prostate index was 0.75±0.12.

Q: What about the “wet weight of the prostate” value ([2]; finasteride 3mg/kg orally) of the same compound?
A: Its value is 29.2 ± 1.4 mg.

Q: And the Average weight ([2]; finasteride 3mg/kg orally)?
A: Its Average weight is 40.7 ± 3.1 g.

Q: What about the prostate index ([2]; finasteride 3mg/kg orally) of the same compound?
A: Its prostate index is 0.72±0.08.

Q: How did the “Change of weight Before administration” value (Lewis lung cancer; [3]) turn out when `O=P1(N(CCCl)CCCl)NCCCO1` (stereo not drawn) [cyclophosphamide, Cyclophosphamide] was run?
A: Its value is 17.60 ± 0.59 g.

Q: What about the “Change of weight After administration” value (Lewis lung cancer; [4]) of the same compound?
A: Its value is 19.95 ± 0.77 g.

Q: What about the Tumor weight (Lewis lung cancer; [4]) of the same compound?
A: Its Tumor weight is 0.14 ± 0.09 g.

Q: What about the Tumor suppression (Lewis lung cancer; [5]) of the same compound?
A: Its Tumor suppression is 95.35%.

Q: What about the Tumor weight (EL-4 lymphoma; [4]) of the same compound?
A: The Tumor weight was 0.12 ± 0.03 g.

Q: What about the Tumor suppression (EL-4 lymphoma; [5]) of the same compound?
A: Its Tumor suppression is 95.67%.

Q: And the “leukocytes (routine blood analysis)” value (EL-4 lymphoma; [6])?
A: The value was “significantly reduced”.

Q: What about the “lymphocytes (routine blood analysis)” value (EL-4 lymphoma; [6]) of the same compound?
A: The value was “significantly reduced”.

Q: What about the “monocytes (routine blood analysis)” value (EL-4 lymphoma; [6]) of the same compound?
A: Its value is “significantly reduced”.

Q: What about the “neutrophils (routine blood analysis)” value (EL-4 lymphoma; [6]) of the same compound?
A: Its value is “significantly reduced”.

Q: What about the “Change of weight Before administration” value (B16F10 melanoma; [3]) of the same compound?
A: The value was 18.97 ± 0.55 g.

Q: What about the “Change of weight After administration” value (B16F10 melanoma; [7]) of the same compound?
A: The value was 19.07 ± 1.46 g.

Q: What about the Tumor weight (B16F10 melanoma; [7]) of the same compound?
A: Its Tumor weight is 0.26 ± 0.11 g.

Q: And the Tumor suppression (B16F10 melanoma; cyclophosphamide 0.1 g/kg once a week, vs normal control group)?
A: Its Tumor suppression is 85.82%.
